Here are results for 18 compounds from patent publication US8835429B2, “Pyrimidine compounds, their use as mTOR kinase and Pl3 kinase inhibitors, and their syntheses” (Wyeth LLC, priority 2009, dated 2014).

The target of experiment [1] is mTOR (Homo sapiens, UniProt P42345). As to the kind of experiment: mTOR enzyme assay (DELFIA, purified FLAG-TOR, His6-S6K substrate). It is filed as biochemical. Also noted: FLAG. The conditions noted are these: 100 μM ATP, 2 hours.
Experiment [2] relates to MDA468. The experiment is described as follows: In vitro cell growth assay (MTS), MDA468. It is filed as cell-based. Conditions: 72 h, human breast line MDA468, three days after drug treatment, read-out: MDA IC50. The protocol: (§1) The cell lines used were human prostate lines LNCap and PC3MM2, human breast lines MDA468 and MCF7, human renal line HTB44 (A498), human colon line HCT116, and human ovarian line OVCAR3. Cells were plated in 96-well culture plates. One day following plating, the inhibitors were added to cells. Three days after drug treatment, viable cell densities were determined by metabolic conversion (by viable cells) of the dye MTS, a well-established cell proliferation assay. The assays were performed using an assay kit purchased from Promega Corp. (Madison, Wis.) following the protocol supplied with the kit. The MTS assay results were read in a 96-well plate reader by measuring absorbance at 490 nm. The effect of each treatment was calculated as percent of control growth relative to the vehicle-treated cells grown in the same culture plate.

Experiment [3] concerns LNCap. As to the kind of experiment: In vitro cell growth assay (MTS), LNCap. It is filed as cell-based. Conditions: LNCaP, 72 h, human prostate line, three days after drug treatment. The protocol: as §1
Experiment [4] deals with PI3K-alpha (Homo sapiens, UniProt P42336). The experiment is described as follows: PI3K-alpha fluorescence polarization assay. It is filed as biochemical. Conditions: 20 μM PIP2, 25 μM ATP; read-out: PI3Kα IC50. The protocol: The reaction buffer was 20 mM HEPES, pH 7.5, 2 mM MgCl2, 0.05% CHAPS; and 0.01% βME (added fresh). The stop/detection buffer was 100 mM HEPES, pH 7.5, 4 mM EDTA, 0.05% CHAPS; ATP 20 mM in water; PIP2 (diC8, Echelon, Salt Lake City Utah cat #P-4508) 1 mM in water (MW=856.5). The GST-GRP was 1.75 mg/mL or 1.4 mg/mL in 10% glycerol. The red detector (TAMRA) was 2.5 μM. Nunc 384-well black polypropylene fluorescent plates were used for PI3K assays.
Chain of PI3K-alpha (P42336 whole entry, species assumed): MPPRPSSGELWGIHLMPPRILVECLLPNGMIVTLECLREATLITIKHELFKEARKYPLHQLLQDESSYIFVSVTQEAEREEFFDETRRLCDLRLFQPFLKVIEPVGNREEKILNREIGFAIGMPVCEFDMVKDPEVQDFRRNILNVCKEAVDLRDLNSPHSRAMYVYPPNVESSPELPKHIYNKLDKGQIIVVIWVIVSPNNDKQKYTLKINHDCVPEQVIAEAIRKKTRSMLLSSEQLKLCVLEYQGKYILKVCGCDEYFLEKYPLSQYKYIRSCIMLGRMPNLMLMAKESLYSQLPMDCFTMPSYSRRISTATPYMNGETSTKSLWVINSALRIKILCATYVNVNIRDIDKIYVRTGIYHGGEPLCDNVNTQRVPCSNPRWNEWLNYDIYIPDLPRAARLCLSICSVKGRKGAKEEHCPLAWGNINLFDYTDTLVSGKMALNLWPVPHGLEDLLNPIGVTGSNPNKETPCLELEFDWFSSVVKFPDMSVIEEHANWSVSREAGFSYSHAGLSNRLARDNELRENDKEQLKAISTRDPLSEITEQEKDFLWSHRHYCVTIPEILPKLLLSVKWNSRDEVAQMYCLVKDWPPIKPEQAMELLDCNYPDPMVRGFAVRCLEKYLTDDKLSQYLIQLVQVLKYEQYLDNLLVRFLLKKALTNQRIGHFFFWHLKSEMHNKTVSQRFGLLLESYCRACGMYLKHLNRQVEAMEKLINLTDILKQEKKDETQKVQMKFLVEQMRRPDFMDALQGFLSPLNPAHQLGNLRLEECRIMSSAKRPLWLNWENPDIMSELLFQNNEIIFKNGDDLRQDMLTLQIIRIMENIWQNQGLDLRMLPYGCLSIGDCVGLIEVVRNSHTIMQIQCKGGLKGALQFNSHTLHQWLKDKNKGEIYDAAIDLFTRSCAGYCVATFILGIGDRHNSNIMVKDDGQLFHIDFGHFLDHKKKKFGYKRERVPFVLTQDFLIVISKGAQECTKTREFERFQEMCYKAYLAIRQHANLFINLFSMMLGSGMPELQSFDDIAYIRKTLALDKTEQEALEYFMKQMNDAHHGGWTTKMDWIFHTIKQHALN
Chain of PI3K-alpha (P27986 whole entry partner, species assumed): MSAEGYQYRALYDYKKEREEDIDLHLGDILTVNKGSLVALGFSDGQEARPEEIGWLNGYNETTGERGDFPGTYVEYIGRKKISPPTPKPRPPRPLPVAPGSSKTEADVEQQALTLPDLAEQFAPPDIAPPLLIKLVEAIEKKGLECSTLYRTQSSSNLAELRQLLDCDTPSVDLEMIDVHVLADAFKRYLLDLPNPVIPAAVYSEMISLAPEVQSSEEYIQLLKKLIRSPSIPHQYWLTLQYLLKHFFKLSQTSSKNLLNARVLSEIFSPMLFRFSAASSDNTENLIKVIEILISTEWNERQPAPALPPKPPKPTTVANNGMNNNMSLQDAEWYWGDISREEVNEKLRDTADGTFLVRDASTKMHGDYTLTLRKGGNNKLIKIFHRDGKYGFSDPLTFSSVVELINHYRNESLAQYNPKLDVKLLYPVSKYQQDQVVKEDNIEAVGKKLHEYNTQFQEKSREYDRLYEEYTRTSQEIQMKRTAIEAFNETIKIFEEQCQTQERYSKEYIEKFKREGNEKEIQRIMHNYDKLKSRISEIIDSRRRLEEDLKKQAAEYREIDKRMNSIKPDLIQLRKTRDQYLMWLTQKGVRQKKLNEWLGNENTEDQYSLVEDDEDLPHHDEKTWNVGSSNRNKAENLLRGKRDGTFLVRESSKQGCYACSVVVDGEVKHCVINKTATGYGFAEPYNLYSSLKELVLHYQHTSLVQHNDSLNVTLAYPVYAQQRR
The assay is run by placing 5 μL of diluted enzyme per well, then 5 μL of diluted compound (or 9.5 μL enzyme then 0.5 μL compound in DMSO) is added and mixed. Then, 10 μL substrate is added to start the reaction. The samples are incubated 30-60 minutes, then the reaction is stopped by adding 20 μL stop/detector mix. PI3K is diluted with reaction buffer (e.g., 5 μL or 7.5 μL PI3K into 620 μL reaction buffer), and 5 μL of diluted enzyme is used per well. A 5 μL portion of reaction buffer or of drug diluted in buffer (e.g., 4 μL/100 so final DMSO is 1% in reaction) is added to each. Pipetting up and down mixes the samples. Alternatively, the enzyme can be diluted to 1215 μL. In this case 9.8 μL is added per well and 0.2 μL compound is added in DMSO.
To prepare 1 mL of substrate solution, 955 μL reaction buffer, 40 μL PIP2, and 2.5 μL ATP are mixed. 10 μL of substrate is added to each well to start the reaction. […] The stop/detector mix is prepared by mixing 4 μL red detector and 1.6 μL or 2.0 μL GST-GRP with 1 mL stop buffer, which results in 10 nM probe and 70 nM GST-GRP. 20 μL of the stop/detector mix is added to each well to stop the reaction. The plates are read after 30-90 minutes keeping the red probe solutions dark. For the zero time point, stop/detector mix is added to the enzyme just before adding substrate. For an extra control, stop/detector mix is added to buffer (no enzyme) and substrate or to just buffer (no substrate). […] The recommended reaction has 0.06 μL per 20 μL (0.015 μg/20 μL) or 0.01125 μg/15 μL or 0.75 μg/mL.
Plates are read on machines with filters for TAMRA. The units are mP with no enzyme controls reading app 190-220 mP units. Fully active enzyme reduces fluorescence polarization down to 70-100 mP after 30 minutes. An active compound raises the mP values halfway to control or to 120-150 mP units.

Chain of mTOR (P42345 1360-2549 limits assumed): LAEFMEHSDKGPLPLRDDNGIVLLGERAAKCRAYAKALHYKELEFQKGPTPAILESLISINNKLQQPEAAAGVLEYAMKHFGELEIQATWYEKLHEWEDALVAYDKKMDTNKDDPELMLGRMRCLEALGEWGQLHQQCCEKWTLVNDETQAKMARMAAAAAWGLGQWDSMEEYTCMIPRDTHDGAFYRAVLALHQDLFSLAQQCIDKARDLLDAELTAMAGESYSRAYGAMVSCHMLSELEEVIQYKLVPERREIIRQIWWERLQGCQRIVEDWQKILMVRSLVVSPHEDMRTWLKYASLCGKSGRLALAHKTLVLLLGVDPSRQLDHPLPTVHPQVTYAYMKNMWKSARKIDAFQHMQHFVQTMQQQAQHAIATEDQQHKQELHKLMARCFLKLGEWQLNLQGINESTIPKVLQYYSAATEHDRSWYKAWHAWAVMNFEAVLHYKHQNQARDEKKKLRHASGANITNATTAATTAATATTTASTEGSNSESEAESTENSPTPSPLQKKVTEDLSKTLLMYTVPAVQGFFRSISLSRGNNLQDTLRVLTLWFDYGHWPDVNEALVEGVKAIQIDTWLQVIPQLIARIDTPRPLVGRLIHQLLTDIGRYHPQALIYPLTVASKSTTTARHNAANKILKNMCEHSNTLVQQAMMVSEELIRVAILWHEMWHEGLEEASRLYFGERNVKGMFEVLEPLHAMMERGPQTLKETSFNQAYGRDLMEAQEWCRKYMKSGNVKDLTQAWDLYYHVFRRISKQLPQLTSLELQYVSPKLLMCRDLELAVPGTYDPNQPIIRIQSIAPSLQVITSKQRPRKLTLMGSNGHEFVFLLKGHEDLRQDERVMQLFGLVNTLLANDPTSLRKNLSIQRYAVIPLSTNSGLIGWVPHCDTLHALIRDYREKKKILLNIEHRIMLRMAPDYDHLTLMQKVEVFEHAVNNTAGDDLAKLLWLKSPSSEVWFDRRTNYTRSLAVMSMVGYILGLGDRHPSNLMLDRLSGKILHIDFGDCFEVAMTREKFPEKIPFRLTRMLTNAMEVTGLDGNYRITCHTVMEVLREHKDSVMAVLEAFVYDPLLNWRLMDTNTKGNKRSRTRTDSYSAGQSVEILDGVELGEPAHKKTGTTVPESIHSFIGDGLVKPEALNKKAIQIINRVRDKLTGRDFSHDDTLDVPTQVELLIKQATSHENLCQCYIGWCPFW

For `CS(=O)(=O)Cc1cc(N2CC3CCC(C2)O3)nc(-c2ccc(NC(=O)NC3CC3)cc2)n1` [1-cyclopropyl-3-(4-{4-[(methylsulfonyl)methyl]-6-(8-oxa-3-azabicyclo[3.2.1]oct-3-yl)pyrimidin-2-yl}phenyl)urea], the half-inhibitory concentration (IC50) (commonly the concentration needed to halve the response being measured) in experiment [1] is 5.7 nM; in experiment [2], 2500 nM; in experiment [3] it was 1000 nM; in experiment [4] it was 4640 nM.

`CC(C)Nc1cc(N2C3CCC2COC3)nc(-c2ccc(NC(=O)Nc3ccncc3)cc2)n1` [1-{4-[4-(isopropylamino)-6-(3-oxa-8-azabicyclo[3.2.1]oct-8-yl)pyrimidin-2-yl]phenyl}-3-pyridin-4-ylurea]: the 50% inhibitory concentration (IC50) turned out to be 1.4 nM in experiment [1], 29 nM in experiment [2], 13 nM in experiment [3] and 2500 nM in experiment [4].

With `CN1CCN(C(=O)c2ccc(NC(=O)Nc3ccc(-c4nc(N5C6CCC5COC6)cc(N5C6CCC5COC6)n4)cc3)cc2)CC1` [1-[4-(4,6-di-3-oxa-8-azabicyclo[3.2.1]oct-8-ylpyrimidin-2-yl)phenyl]-3-{4-[(4-methylpiperazin-1-yl)carbonyl]phenyl}urea], the IC50 in experiment [1] is 0.94 nM; in experiment [2], 0.8 nM; in experiment [3] it was at most 0.8 nM; in experiment [4], 129 nM.

For the compound `CNC(=O)Nc1ccc(-c2nc(-c3ccccc3)cc(N3CC4CCC(C3)O4)n2)cc1` [1-methyl-3-{4-[4-(8-oxa-3-azabicyclo[3.2.1]oct-3-yl)-6-phenylpyrimidin-2-yl]phenyl}urea], the IC50 is 22 nM in experiment [1], 2000 nM in experiment [2], 510 nM in experiment [3] and 953 nM in experiment [4].

In the case of `CN1CCN(Cc2ccc(NC(=O)Nc3ccc(-c4nc(N5C6CCC5COC6)cc(N5C6CCC5COC6)n4)cc3)cc2)CC1` [1-[4-(4,6-di-3-oxa-8-azabicyclo[3.2.1]oct-8-ylpyrimidin-2-yl)phenyl]-3-{4-[(4-methylpiperazin-1-yl)methyl]phenyl}urea], the IC50 in experiment [1] is 2.25 nM; in experiment [2], 4 nM; in experiment [3], at most 0.8 nM; in experiment [4], 1950 nM.

Regarding `CS(=O)(=O)Cc1cc(N2CC3CCC(C2)O3)nc(-c2ccc(NC(=O)Nc3ccc(N4CCNCC4)cc3)cc2)n1` [1-(4-{4-[(methylsulfonyl)methyl]-6-(8-oxa-3-azabicyclo[3.2.1]oct-3-yl)pyrimidin-2-yl}phenyl)-3-(4-piperazin-1-ylphenyl)urea], the IC50 amounted to 3 nM in experiment [1], 110 nM in experiment [2], 90 nM in experiment [3] and 242 nM in experiment [4].

Turning to `CN(C)CCOc1ccc(NC(=O)Nc2ccc(-c3nc(CS(C)(=O)=O)cc(N4CC5CCC(C4)O5)n3)cc2)cc1` [1-{4-[2-(dimethylamino)ethoxy]phenyl}-3-(4-{4-[(methylsulfonyl)methyl]-6-(8-oxa-3-azabicyclo[3.2.1]oct-3-yl)pyrimidin-2-yl}phenyl)urea], the IC50 in experiment [1] is 5 nM; in experiment [2], 165 nM; in experiment [3], 90 nM; in experiment [4] it was 405 nM.

On to `CN1CCN(c2ccc(NC(=O)Nc3ccc(-c4nc(N5CC6CCC(C5)O6)cc(N5CC6CCC(C5)O6)n4)cc3)cc2)CC1` [1-[4-(4,6-di-8-oxa-3-azabicyclo[3.2.1]oct-3-ylpyrimidin-2-yl)phenyl]-3-[4-(4-methylpiperazin-1-yl)phenyl]urea], for which the IC50 worked out at 2.55 nM in experiment [1], 19 nM in experiment [2], 2.4 nM in experiment [3] and 328 nM in experiment [4].

Consider `O=C(Nc1ccncc1)Nc1ccc(-c2nc(-c3ccccc3)cc(N3CC4CCC(C3)O4)n2)cc1` [1-{4-[4-(8-oxa-3-azabicyclo[3.2.1]oct-3-yl)-6-phenylpyrimidin-2-yl]phenyl}-3-pyridin-4-ylurea], for which the IC50 in experiment [1] came to 5.6 nM; in experiment [2], 390 nM; in experiment [3] it was 290 nM; in experiment [4] it was 229 nM.

Turning to `CN(C)CCOc1ccc(NC(=O)Nc2ccc(-c3nc(-c4ccccc4)cc(N4CC5CCC(C4)O5)n3)cc2)cc1` [1-{4-[2-(dimethylamino)ethoxy]phenyl}-3-{4-[4-(8-oxa-3-azabicyclo[3.2.1]oct-3-yl)-6-phenylpyrimidin-2-yl]phenyl}urea], the IC50 stood at 19 nM in experiment [1], 300 nM in experiment [2], 120 nM in experiment [3] and 141 nM in experiment [4].

As for `Nc1ccc(-c2nccc(N3CC4CCC(C3)O4)n2)cc1` [4-[4-(8-oxa-3-azabicyclo[3.2.1]oct-3-yl)pyrimidin-2-yl]aniline], the IC50 is 4000 nM in experiment [1], at least 60000 nM in experiment [2], 41000 nM in experiment [3] and 6850 nM in experiment [4].

On to `CN1CCN(c2ccc(NC(=O)Nc3ccc(-c4cc(N5CC6CCC(C5)O6)nc(N5CC6CCC(C5)O6)n4)cc3)cc2)CC1` [1-[4-(2,6-di-8-oxa-3-azabicyclo[3.2.1]oct-3-ylpyrimidin-4-yl)phenyl]-3-[4-(4-methylpiperazin-1-yl)phenyl]urea], for which the half-maximal inhibitory concentration (IC50) in experiment [1] worked out at 9.55 nM; in experiment [2] it was 160 nM; in experiment [3] it was 40 nM; in experiment [4], 588 nM.

Turning to `CNC(=O)Nc1ccc(-c2nc(CS(C)(=O)=O)cc(N3CC4CCC(C3)O4)n2)cc1` [1-methyl-3-(4-{4-[(methylsulfonyl)methyl]-6-(8-oxa-3-azabicyclo[3.2.1]oct-3-yl)pyrimidin-2-yl}phenyl)urea], the half-maximal inhibitory concentration (IC50) in experiment [1] worked out at 13.5 nM; in experiment [2] it was 3300 nM; in experiment [3], 2050 nM; in experiment [4], 1730 nM.

For `O=C(Nc1ccc(-c2cc(N3CC4CCC(C3)O4)nc(N3CC4CCC(C3)O4)n2)cc1)NC1CC1` [1-cyclopropyl-3-[4-(2,6-di-8-oxa-3-azabicyclo[3.2.1]oct-3-ylpyrimidin-4-yl)phenyl]urea], the IC50 in experiment [1] came out at 38.5 nM; in experiment [2], 6000 nM; in experiment [3] it was 800 nM; in experiment [4], 3930 nM.

Regarding `CC(C)Nc1cc(N2C3CCC2COC3)nc(-c2ccc(NC(=O)Nc3ccc(CN4CCN(C)CC4)cc3)cc2)n1` [1-{4-[4-(isopropylamino)-6-(3-oxa-8-azabicyclo[3.2.1]oct-8-yl)pyrimidin-2-yl]phenyl}-3-{4-[(4-methylpiperazin-1-yl)methyl]phenyl}urea], the IC50 is 3.2 nM in experiment [1], 110 nM in experiment [2], 70 nM in experiment [3] and 3410 nM in experiment [4].

Turning to `CNC(=O)Nc1ccc(-c2nc(N3CC4CCC(C3)O4)cc(C(F)(F)F)n2)cc1` [1-methyl-3-{4-[4-(8-oxa-3-azabicyclo[3.2.1]oct-3-yl)-6-(trifluoromethyl)pyrimidin-2-yl]phenyl}urea], the half-maximal inhibitory concentration (IC50) in experiment [1] turned out to be 11.5 nM; in experiment [2], 2100 nM; in experiment [3], 670 nM; in experiment [4], 1550 nM.

With `O=C(Nc1ccc(CO)cc1)Nc1ccc(-c2nc(-c3ccccc3)cc(N3CC4CCC(C3)O4)n2)cc1` [1-[4-(hydroxymethyl)phenyl]-3-{4-[4-(8-oxa-3-azabicyclo[3.2.1]oct-3-yl)-6-phenylpyrimidin-2-yl]phenyl}urea], the half-maximal inhibitory concentration (IC50) in experiment [1] was determined as 2.9 nM; in experiment [2] it was 130 nM; in experiment [3] it was 56 nM; in experiment [4], 102 nM.

As to `CC(C)Nc1nc(-c2ccc(NC(=O)Nc3cccnc3)cc2)nc(N2CC3CCC(C2)O3)c1NC(=O)CCN(C)C` [N~3~,N~3~-dimethyl-N-(4-[(1-methylethyl)amino]-6-(8-oxa-3-azabicyclo[3.2.1]oct-3-yl)-2-{4-[(pyridin-3-ylcarbamoyl)amino]phenyl}pyrimidin-5-yl)-beta-alaninamide], the IC50 is 13500 nM in experiment [1], at least 60000 nM in experiment [2], 30000 nM in experiment [3] and 5980 nM in experiment [4].
